These results are taken from patent US20170000132A1, “BENZOXABOROLE FUNGICIDES” (SYNGENTA PARTICIPATIONS AG, priority 2013, published 2017).

In experiment [1] the test system is Monographella nivale (Microdochium nivale). The experiment is described as follows: Monographella nivale / wheat pouch test with infected seeds. The format is in vivo, M. nivale. The settings on record: 60 ppm; infected wheat seeds cv. Arina in pouch, 4 weeks after sowing; compared to untreated control. As for the experimental part:
Fungicidal Activity Against Monographella nivale (Microdochium nivale)/Wheat
Formulated test compound is applied into a pouch which was previously equipped with a filter paper. After the application wheat seeds cv. Arina infected with M. nivale are sown into the upper fault of the filter paper. The pouches are then incubated for 7 days in the dark at 7° C./5° C. (day/night) and 80% r. h. After 1 week light is supplied at the same temperature cycle. Another two weeks later plants were transferred to 17° C./16° C. (day/night) and 80% r. H. The disease incidence is assessed 4 weeks after sowing.

Another experiment concerns Phytophthora infestans. The format is in vivo. The settings on record: 200 ppm; tomato leaf disks, preventative; compared to untreated control.
The subject of the next experiment is Puccinia recondita. Description: Puccinia recondita / wheat plants, spray chamber. The format is in vivo. The conditions noted are these: 20 ppm; 1 week old wheat plants cv. Arina, sprayed 2 days before inoculation, assessed 10 days after inoculation. On the procedure:
Fungicidal Activity Against Puccinia recondita/Wheat 1 week old wheat plants cv. Arina were treated with the formulated test compound in a spray chamber. Two days after application wheat plants were inoculated by spraying a spore suspension (1×105 uredospores/ml) on the test plants. After an incubation period of 1 day at […] and 95% r. h. plants were kept for 9 days at […] and 60% r.h. in a greenhouse. The disease incidence was assessed 10 days after inoculation.

The subject of experiment [2] is Giberella zeae (Fusarium graminearum). It counts as in vivo. The settings on record: 200 ppm; wheat spikelets, preventative, assessed 6 dpi; compared to untreated control.

For `CCOC(=O)CNN=Cc1cc2c(cc1Cl)COB2O` (single isomer, unassigned) [Compound 70], the “disease control (disease incidence)” value in experiment [1] is reported as “at least 80%”. On to `CNC(=S)NN=Cc1cc(Cl)cc2c1B(O)OC2` (single isomer, unassigned) [Compound 224], for which the disease control entry with Phytophthora infestans was “at least 80%”. For the molecule `OB1OCc2cc(Cl)c(C=NOCC=C(Cl)Cl)cc21` (single isomer, unassigned) [Compound 50], the “disease control (disease incidence)” value with Puccinia recondita is given as “at least 80%”.

As to `COC(=O)Cc1ccccc1CON=Cc1cc2c(cc1Cl)COB2O` (single isomer, unassigned) [Compound 59], the disease control entry in experiment [2] is given as “at least 80%”.
